Reference: publication PMC5601071 (Frontiers in Pharmacology, 2017)
Residues, ends and D or L forms follow the SMILES beside them. *: point of attachment. FITC = O=C1OC2(c3ccc(O)cc3Oc3cc(O)ccc32)c2ccc(NC(=S)*)cc21; Biotin = O=C1N[C@H]2[C@H](CS[C@H]2CCCCC(=O)*)N1; Dansyl = CN(C)c1cccc2c(S(=O)(=O)*)cccc12; Fmoc = O=C(OCC1c2ccccc2-c2ccccc21)*; Stearoyl = CCCCCCCCCCCCCCCCCC(=O)*; Palmitoyl = CCCCCCCCCCCCCCCC(=O)*; Myristoyl = CCCCCCCCCCCCCC(=O)*; For = O=C*

Target: T1, TREK-1 channel (hTREK-1/HEK cells) (Homo sapiens, UniProt O95069)
T1 construct: expressed in transfected cells
T1 sequence (O95069 1-426): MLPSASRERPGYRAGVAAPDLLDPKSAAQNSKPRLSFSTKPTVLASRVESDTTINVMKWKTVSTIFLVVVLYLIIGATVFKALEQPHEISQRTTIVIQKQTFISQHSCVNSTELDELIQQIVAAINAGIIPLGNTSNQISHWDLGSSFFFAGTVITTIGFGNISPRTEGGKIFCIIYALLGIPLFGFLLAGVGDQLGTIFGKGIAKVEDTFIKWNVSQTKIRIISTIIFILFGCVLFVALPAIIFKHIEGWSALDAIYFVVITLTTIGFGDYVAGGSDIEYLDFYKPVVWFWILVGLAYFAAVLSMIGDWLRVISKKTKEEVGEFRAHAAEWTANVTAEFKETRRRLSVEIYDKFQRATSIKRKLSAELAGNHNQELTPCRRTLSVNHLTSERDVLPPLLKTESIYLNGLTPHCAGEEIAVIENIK
Test: TREK-1 current inhibition, whole-cell patch-clamp on hTREK-1/HEK cell line
Type: cell-based
Conditions: HEK293, peptide 100 nM; TREK-1 first activated with 10 μM arachidonic acid (AA); current density at 0 mV; hTREK-1/HEK cells; mean ± SEM, n = cells; read-out: % of TREK-1 inhibition
Protocol: The human TREK-1/HEK cell line (Moha ou Maati et al., [2011]) and the native HEK293 cell line were maintained in Dulbecco's Modified Eagle's Medium (DMEM) supplemented with 10% (v/v) heat-inactivated fetal bovine serum, 1% (v/v) penicillin-streptomycin, 1% Glutamax. For the hTREK-1/HEK cells, 0.5 mg/ml G418 were added to the medium.
Cells were incubated in a humidified atmosphere containing 5% CO2. For electrophysiological measurements, cells were plated at a density of 20,000 cells per 35 mm dish.
Cells from the hTREK-1/HEK cell line were seeded at a density of 20,000 cells/35 mm dish. Electrophysiological recordings were performed 24–48 h after plating using the whole-cell configuration of patch-clamp technique. TREK-1 currents (ITREK−1) were recorded using RK400 patch-clamp amplifier (Axon Instrument, USA). They were low-pass filtered at 3 kHz and digitized at 10 kHz using a 12-bit analog-to-digital converter digidata (1322 series, Axon Instrument, USA). ITREK−1amplitudes were expressed as current densities [current amplitude (pA)/membrane capacitance (pF)]. The results were expressed as mean ± SEM (standard error of the mean).
Cells were continuously perfused using an external bath solution containing in mM: 150 NaCl, 5 KCl, 3 MgCl2, 1 CaCl2, and 10 HEPES. The bath solution was initially adjusted to pH 7.4 with NaOH. The intra-pipette solution contained in mM: 155 KCl, 3 MgCl2, 5 EGTA, and 10 HEPES adjusted to pH 7.2 with KOH. In order to measure ITREK−1, a cocktail of potassium channel blockers was added to the bath solution. This cocktail contained: 3 mM 4-AP (4-aminopyridine), 10 mM TEA (tetraethylammonium), 10 μM Glibenclamide, 100 nM Apamin, and 50 nM Charybdotoxin. Data acquisition was carried out using a computer (Dell Pentium) with pClamp software (Axon Instrument, USA). Whole-cell currents were generated by running a pulse or ramp protocol every 5 s from −100 to +60 mV with a holding potential maintained at −80 mV. To evaluate the inhibitory effect on TREK-1 channels of shortened spadin analogs compared with spadin, cells were first activated by 10 μM arachidonic acid (AA). Dose-response curves were realized to compare spadin-analog effects with spadin using Origin 8.6 (Northampton, MA, USA).
Patch-clamp recording data were analyzed using Clampfit (Molecular Devices, USA). I = f(V) curves were obtained from −100 to +60 mV ramp. Data were presented as mean ± SEM.

| Structure (SMILES) | inhibition at 0.1 µM |
| --- | --- |
| CC[C@H](C)[C@H](NC(=O)[C@@H]1CCCN1C(=O)CCCC[C@@H]1SC[C@@H]2NC(=O)N[C@@H]21)C(=O)NCC(=O)N[C@H](C(=O)N[C@@H](CO)C(=O)N[C@@H](Cc1c[nH]c2ccccc12)C(=O)NCC(=O)N[C@@H](CC(C)C)C(=O)N[C@@H](CCCNC(=N)N)C(=O)O)C(C)C [Biotinylated-PI-PE 22-28] (Biotin-PIGVSWGLR-OH) | 49.1 ± 7.45% |
| CC(C)C[C@H](NC(=O)CNC(=O)[C@H](Cc1c[nH]c2ccccc12)NC(=O)[C@H](CO)NC(=O)[C@@H](NC(=O)CNC(=S)Nc1ccc2c(c1)C(=O)OC21c2ccc(O)cc2Oc2cc(O)ccc21)C(C)C)C(=O)N[C@@H](CCCNC(=N)N)C(=O)O [FITC-PE 22-28] ({FITC}-GVSWGLR-OH) | 22.1 ± 12.6% |
| CC(C)C[C@H](NC(=O)CNC(=O)[C@H](Cc1c[nH]c2ccccc12)NC(=O)[C@H](CO)NC(=O)[C@@H](NC(=O)CN)C(C)C)C(=O)O [PE 22-27] (H-GVSWGL-OH) | 25.7 ± 20% |
| COC(=O)[C@H](CCCNC(=N)N)NC(=O)[C@H](CC(C)C)NC(=O)CNC(=O)[C@H](Cc1c[nH]c2ccccc12)NC(=O)[C@H](CO)NC(=O)[C@@H](NC(=O)CN)C(C)C [PE 22-28-O-Methyl] (H-GVSWGLR-OMe) | 43 ± 13.5% |

Same assay, conditions: HEK293, read-out: % of TREK-1 inhibition

| Structure (SMILES) | inhibition at 0.1 µM |
| --- | --- |
| CC(=O)NCC(=O)N[C@H](C(=O)N[C@@H](CO)C(=O)N[C@@H](Cc1c[nH]c2ccccc12)C(=O)NCC(=O)N[C@@H](CC(C)C)C(=O)N[C@@H](CCCNC(=N)N)C(=O)O)C(C)C [Acetyl-PE 22-28] (Ac-GVSWGLR-OH) | 20.5 ± 8.78% |
| CCCCCCCCCCCCCC(=O)NCC(=O)N[C@H](C(=O)N[C@@H](CO)C(=O)N[C@@H](Cc1c[nH]c2ccccc12)C(=O)NCC(=O)N[C@@H](CC(C)C)C(=O)N[C@@H](CCCNC(=N)N)C(=O)O)C(C)C [Myristoyl-PE 22-28] (Myristoyl-GVSWGLR-OH) | 18 ± 17.8% |
| CC(C)C[C@H](NC(=O)CNC(=O)[C@H](Cc1c[nH]c2ccccc12)NC(=O)[C@H](CO)NC(=O)[C@@H](NC(=O)CNC(=O)OCC1c2ccccc2-c2ccccc21)C(C)C)C(=O)N[C@@H](CCCNC(=N)N)C(=O)O [F-Moc-PE 22-28] (Fmoc-GVSWGLR-OH) | 5.83 ± 10.9% |
| CCCCCCCCCCCCCCCC(=O)NCC(=O)N[C@H](C(=O)N[C@@H](CO)C(=O)N[C@@H](Cc1c[nH]c2ccccc12)C(=O)NCC(=O)N[C@@H](CC(C)C)C(=O)N[C@@H](CCCNC(=N)N)C(=O)O)C(C)C [Palmitoyl-PE 22-28] (Palmitoyl-GVSWGLR-OH) | 26.7 ± 16.4% |
| CC(C)C[C@H](NC(=O)CNC(=O)[C@H](Cc1c[nH]c2ccccc12)NC(=O)[C@H](CO)NC(=O)[C@@H](NC(=O)CNS(=O)(=O)c1cccc2c(N(C)C)cccc12)C(C)C)C(=O)N[C@@H](CCCNC(=N)N)C(=O)O [DansyI-PE 22-28] (Dansyl-GVSWGLR-OH) | 48.8 ± 14.5% |
| CCCCCCCCCCCCCCCCCC(=O)NCC(=O)N[C@H](C(=O)N[C@@H](CO)C(=O)N[C@@H](Cc1c[nH]c2ccccc12)C(=O)NCC(=O)N[C@@H](CC(C)C)C(=O)N[C@@H](CCCNC(=N)N)C(=O)O)C(C)C [Stearic acid-PE 22-28] (Stearoyl-GVSWGLR-OH) | 5.41 ± 5.5% |
| CC(C)C[C@H](NC(=O)CNC(=O)[C@H](Cc1c[nH]c2ccccc12)NC(=O)[C@H](CO)NC(=O)[C@@H](NC(=O)CNC=O)C(C)C)C(=O)N[C@@H](CCCNC(=N)N)C(=O)O [Formyl-PE 22-28] (For-GVSWGLR-OH) | 32.5 ± 12.2% |
